The numbers were not newly measured in patent US11364228B2 (Ovid Therapeutics Inc., priority 2019, dated 2022), which cites them from elsewhere.

Broadly, the half-life is how long it takes for the measured level to halve.

Bounds are passed on as bounds.

Series [1] has as its system patients with a history of drug abuse. The following applies: patients with a history of drug abuse who received gaboxadol.
For series [2], the system named is sleep onset and sleep maintenance. The note with it: three-month efficacy study, treatment of insomnia.
The mark [3] stands for this setting: conventional pharmaceutical compositions such as tablets and capsules.

In the case of `Oc1noc2c1CCNC2` [Gaboxadol, 4,5,6,7-tetrahydroisoxazolo [5,4-c]pyridine-3-ol], under setting [3], the half-life was 1.5 to 2 h and the “time to reach peak concentration” value is at most 30 min. Further, where the note is “plasma half-life post administration”, the “half-life (t1/2)” value is 1.5 to 2 h. The psychiatric adverse events entry in series [1] was “steep increase in psychiatric adverse events”. In series [2], the “effects in sleep onset and sleep maintenance” value is “failed to show significant effects”.
